Data published in publication PMC12188386, “Selective CBP/EP300 Bromodomain Inhibitors: Novel Epigenetic Tools to Counter TNF-α-Driven Inflammation” (JACS Au, 2025).

Assays:
[1] = concentration in saturated 12.5% CAPTISOL solution; type: physicochemical; conditions: filtered 12.5 w/v% CAPTISOL in water, st. dev. between technical replicates (n=2)
Protocol: was used as the calibration curve. To obtain saturated solutions of the compounds of interest, in duplicates 4.4 µL of a 10 or 5 mM stock in DMSO was added to 436 µL Buffer (PBS, pH = 7.4), to give a final concentration of 100 or 50 µM. Samples were incubated on a shaker (500 rpm) at 37°C for 90 minutes and then filtered (Millex-GV 13 mm, 0.22 µm). 304 µL of the filtrate was mixed with 76 µL of acetonitrile on a dilution plate, from which 350 µL was transferred to a UV-plate and UV-absorption was read using a SpectraMax M5 (Molecular devices). The absorbance was blank-corrected and compared to the calibration curve to […]
solubility. The wavelengths used for the calibration curve are available in Table S4.
Sample preparation in CAPTISOL® […]
lower solubility (2) compounds respectively in a 12.5 w/v% CAPTISOL® solution in water. In a precisely tared vial, required amounts of compounds and CAPTISOL® were weighed out as solids. Based on the known density of 12.5 % CAPTISOL® solution (d = 1.05755 g/mL at 25 °C), the precise weight of the resulting solution and so the required amount of water by weight was calculated. The water was added portion wise with agitation, vortexing and sonication cycles in between additions. The saturated solutions were then filtered (Millex-GV 13 mm, 0.22 µm). In duplicates, aliquots of the filtrates were taken and diluted with blank 12.5 % CAPTISOL® water solution in either a 1:14 (higher sol. compounds) or 1:7 (lower sol. compounds) ratio, 350 µL was transferred to a 96-Well Plate (Greiner, UV-star) then UV absorption (240-400 nm, 10 nm steps) was measured using a SpectraMax M5 (Molecular devices). The absorption was blank-corrected, compared to the calibration curve obtained during the solubility measurement method above and finally corrected for the dilution ratio to obtain the compound concentration in the saturated 12.5 % CAPTISOL® solution. The calculated concentrations are available in Table S4.
BROMOscan™ assays (provided by Eurofins DiscoverX, US)1,2 […]
coli host derived from the BL21 strain. […]

[2] = test system: rmTNF-α-induced cytokines in the popliteal lymph node; assay: TNF-α induced inflammation model, cytokines in pLN (LEGENDplex); type: in vivo, mouse; conditions: mice, 5 h post-rmTNF-α; for concentrations of IL-1β, MCP-1, IL-1α and IL-6 in the pLN: CAPTISOL solutions s.c. (footpad) and i.p. 90 min after rmTNF-α, vs rmTNF-α + CAPTISOL
Protocol: C57BL/6 mice were bred in -house or acquired from Charles River Laboratories. Mice were maintained in specific pathogen -free facilities at the Institute for Research in Biomedicine, Bellinzona. Experiments were performed following the Swiss Federal Veterina ry Office guidelines and authorized by the relevant institutional committee of the Cantonal Veterinary (Commissione cantonale per gli esperimenti sugli animali, Ticino) .
TNF-α induced inflammation model
Recombinant Mouse TNF-α (rmTNF-α) (aa 80-235) Protein (Cat# 410-MT-050/CF) was purchased from RnDsystems® and resuspended following instruction into sterile PBS. Mice were anesthetized with isoflurane and 300 ng of rmTNF-α was administered subcutaneously in the footpad (10 µL injection volume), and for the experiments with the CBP/EP300 inhibitors an additional 300 ng of rmTNF-α was also administered intraperitoneally (100 µL injection volume). After 1.5 h, mice were injected with 10 µL of the prepared CAPTISOL […]
foodpad and also intraperitoneally (for i.p. injection, the 10 µL of CAPTISOL solution was diluted to a final volume of 100 µL using PBS). Organs were collected 5 h after TNF-α […]
LEGENDPlexTM assays (Mouse Pro-inflammatory Chemokine Panel and Mouse Inflammation Panel; Biolegend) were performed to monitor cytokine/chemokine expression. Briefly, popliteal LNs were collected and carefully disrupted in […] ice-cold phosphate buffer, minimizing cell rupture. The suspension was centrifuged at 1,500 rpm for 5 min, and the […]
supernatant was c ected. μ supernatant was used f r the pr t c f win the manufacturer’s instructi ns. amp es were ana zed f w c t metr n an rtessa Biosciences), and data was analyzed using LEGENDPlex software (BioLegend).
Popliteal LNs were collected, disrupted with tweezers, and digested for 10 min at 37°C in an enzyme mix composed of DNase I (0.28 mg/mL, Amresco), dispase (1 U/mL, Corning), and collagenase P (0.5 mg/mL, Roche) in calcium- and magnesium-free PBS (PBS-, Sigma-Aldrich) followed by a stop solution composed of 2 mM EDTA (Sigma -Aldrich) and 2% heat-inactivated filter-sterilized fetal calf serum (Thermo Fisher Scientific) in PBS -. […] Where indicated, intracellular staining was performed using Intracellular Fixation and Permeabilization Buffer Set (eBioscience), following the manufacturer’s instructi ns. ead ce s were exc uded u sing Zombie fixable viability dye (Biolegend), and data were analyzed using FlowJo software (TriStar Inc).
In this study, various combinations of the following fluorescence -conjugated antibodies have been used for cell-surface phen t pic stainin : α - α α […]
Data was analysed and graphs prepared using GraphPad Prism. […]

SMILES | Conc. in 12.5% Captisol sol. [1] [µM] | decrease of IL-6 in the pLN compared to GNE-272 [2] [fold] | concentrations of IL-1β, MCP-1, IL-1α and IL-6 in the pLN [2]
Cc1cc2c(NC(=O)c3cc(NC(=O)c4ccco4)cc(-c4ccn(C)n4)c3)cccc2nn1 [Compound 2] | 160 ± 1 | 4 | significant reduction
Cc1cc2c(NC(=O)c3cc(NC(=O)[C@H]4CCCO4)cc(-c4ccn(C)n4)c3)cccc2nn1 [Compound 5] | 790 ± 18 | 7 | significant reduction
